Columns and labels:
[1] = tested on: AMBEL (Ragweed, Common); experiment: Postemergence herbicidal evaluation; assay type: in vivo, Ambrosia artemisifolia; conditions: postemergence
Procedure, shortened: (§1)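 Rate range approx. 0.0156–0.500 kg/ha. Foliar application at 40 psi to ~2-week seedlings; surfactant 0.5% TWEEN 20 in 50/50 acetone/water. Evaluation 4–5 wk post-treatment by 0–9 visual injury score, means of replicate tests.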

[2] = tested on: CHEAL (Lambsquarters, Common); experiment: Postemergence herbicidal evaluation; assay type: in vivo, Chenopodium album; conditions: postemergence
Procedure, shortened: as §1

[3] = tested on: IPOHE (Morningglory, Ivyleaf); experiment: Postemergence herbicidal evaluation; assay type: in vivo, Ipomoea hederacea; conditions: postemergence
Procedure, shortened: as §1

[4] = tested on: ECHCG (Barnyardgrass); experiment: Postemergence herbicidal evaluation; assay type: in vivo, Echinochloa crus-galli; conditions: postemergence
Procedure, shortened: as §1

[5] = tested on: GLXMAW (Soybean, Williams); experiment: Postemergence herbicidal evaluation; assay type: in vivo, Glycine max, (L.) Merr. cv Williams; conditions: postemergence
Procedure, shortened: as §1

[6] = tested on: ORYSAT (Rice, Tebonnet); experiment: Postemergence herbicidal evaluation; assay type: in vivo, Oryza sativa, (L.) Tebonnet; conditions: postemergence
Procedure, shortened: as §1

[7] = tested on: TRZAWR (Wheat, Winter, cv Riband); experiment: Postemergence herbicidal evaluation; assay type: in vivo, Triticum aestivum; conditions: postemergence
Procedure, shortened: as §1

[8] = tested on: ZEAMX (Corn, Field); experiment: Postemergence herbicidal evaluation; assay type: in vivo, Zea mays; conditions: postemergence
Procedure, shortened: as §1

[9] = tested on: CASOB (Sicklepod); experiment: Preemergence herbicidal evaluation; assay type: in vivo, Cassia obtusifolia; conditions: rated 4-5 weeks after treatment
Procedure, shortened: (§2)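 Seeds were mixed with potting soil and planted on about one inch of soil, then sprayed with test compound in aqueous acetone at about 0.0156 to 0.500 kg per hectare. Plants grew under standard greenhouse care and were visually rated 0-9 against untreated controls 4-5 weeks post-treatment.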

[10] = tested on: CHEAL (Lambsquarters, Common); experiment: Preemergence herbicidal evaluation; assay type: in vivo, Chenopodium album; conditions: rated 4-5 weeks after treatment
Procedure, shortened: as §2

[11] = tested on: IPOHE (Morningglory, Ivyleaf); experiment: Preemergence herbicidal evaluation; assay type: in vivo, Ipomoea hederacea; conditions: rated 4-5 weeks after treatment
Procedure, shortened: as §2

[12] = tested on: SETVI (Foxtail, Green); experiment: Preemergence herbicidal evaluation; assay type: in vivo, Setaria viridis; conditions: rated 4-5 weeks after treatment
Procedure, shortened: as §2

[13] = tested on: ORYSAT (Rice, Tebonnet); experiment: Preemergence herbicidal evaluation; assay type: in vivo, Oryza sativa, (L.) Tebonnet; conditions: rated 4-5 weeks after treatment
Procedure, shortened: as §2

[14] = tested on: ZEAMX (Corn, Field); experiment: Preemergence herbicidal evaluation; assay type: in vivo, Zea mays; conditions: rated 4-5 weeks after treatment
Procedure, shortened: as §2

[15] = tested on: ECHORC (Watergrass (Calif.)); experiment: Preemergence weed control under flooded paddy conditions; assay type: in vivo, Echinochloa oryzoides; conditions: rated 3-4 weeks after treatment
Procedure, shortened: (§3)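 Seeds or propagules sown in silt loam kept flooded 1.5-3 cm; compounds in 50/50 acetone/water pipetted into flood water at about 0.0313 to 0.500 kg/ha. Greenhouse; visual 0-9 rating versus untreated control 3-4 weeks after treatment.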

[16] = tested on: CYPSE (Flatsedge); experiment: as above; assay type: in vivo, Cyperus serotinus; conditions: rated 3-4 weeks after treatment
Procedure, shortened: as §3

[17] = tested on: MOOVA (Monochoria); experiment: as above; assay type: in vivo, Monochoria vaginalis; conditions: rated 3-4 weeks after treatment
Procedure, shortened: as §3

C#CCOC(=O)CN1C(=O)CSC1=Nc1cc(-n2c(=O)cc(C(F)(F)F)n(C)c2=O)c(F)cc1Cl [Compound 115, 2-Propynyl 2-{{2-chloro-5-[3,6-dihydro-3-methyl-2,6-dioxo-4-(trifluoromethyl)-1(2H)-pyrimidinyl]-4-fluorophenyl}imino}-4-oxo-3-thiazolidineacetate]
Herbicidal rating AMBEL ([1]; rate 0.0158 kg/ha): 1.0
Herbicidal rating AMBEL ([1]; rate 0.0315 kg/ha): 6.0
Herbicidal rating AMBEL ([1]; rate 0.0630 kg/ha): 7.0
Herbicidal rating CHEAL ([2]; rate 0.0158 kg/ha): 0.0
Herbicidal rating CHEAL ([2]; rate 0.0315 kg/ha): 1.0
Herbicidal rating CHEAL ([2]; rate 0.0630 kg/ha): 4.0
Herbicidal rating IPOHE ([3]; rate 0.0158 kg/ha): 9.0
Herbicidal rating IPOHE ([3]; rate 0.0315 kg/ha): 9.0
Herbicidal rating IPOHE ([3]; rate 0.0630 kg/ha): 9.0
Herbicidal rating ECHCG ([4]; rate 0.0158 kg/ha): 0.0
Herbicidal rating ECHCG ([4]; rate 0.0315 kg/ha): 2.0
Herbicidal rating ECHCG ([4]; rate 0.0630 kg/ha): 3.0
Herbicidal rating GLXMAW ([5]; rate 0.0158 kg/ha): 5.0
Herbicidal rating GLXMAW ([5]; rate 0.0315 kg/ha): 5.0
Herbicidal rating GLXMAW ([5]; rate 0.0630 kg/ha): 5.0
Herbicidal rating ORYSAT ([6]; rate 0.0158 kg/ha): 1.5
Herbicidal rating ORYSAT ([6]; rate 0.0315 kg/ha): 2.0
Herbicidal rating ORYSAT ([6]; rate 0.0630 kg/ha): 2.5
Herbicidal rating TRZAWR ([7]; rate 0.0158 kg/ha): 1.5
Herbicidal rating TRZAWR ([7]; rate 0.0315 kg/ha): 2.5
Herbicidal rating TRZAWR ([7]; rate 0.0630 kg/ha): 3.0
Herbicidal rating ZEAMX ([8]; rate 0.0158 kg/ha): 5.0
Herbicidal rating ZEAMX ([8]; rate 0.0315 kg/ha): 6.5
Herbicidal rating ZEAMX ([8]; rate 0.0630 kg/ha): 7.0
Preemergence herbicidal rating CASOB ([9]; rate 0.0156 kg/ha): 2.0
Preemergence herbicidal rating CASOB ([9]; rate 0.0625 kg/ha): 0.0
Preemergence herbicidal rating CASOB ([9]; rate 0.1250 kg/ha): 4.0
Preemergence herbicidal rating CASOB ([9]; rate 0.2500 kg/ha): 2.0
Preemergence herbicidal rating CHEAL ([10]; rate 0.0313 kg/ha): 5.0
Preemergence herbicidal rating CHEAL ([10]; rate 0.0625 kg/ha): 7.0
Preemergence herbicidal rating CHEAL ([10]; rate 0.1250 kg/ha): 9.0
Preemergence herbicidal rating CHEAL ([10]; rate 0.2500 kg/ha): 9.0
Preemergence herbicidal rating IPOHE ([11]; rate 0.0156 kg/ha): 0.0
Preemergence herbicidal rating IPOHE ([11]; rate 0.0313 kg/ha): 0.0
Preemergence herbicidal rating IPOHE ([11]; rate 0.0625 kg/ha): 0.0
Preemergence herbicidal rating IPOHE ([11]; rate 0.1250 kg/ha): 2.0
Preemergence herbicidal rating IPOHE ([11]; rate 0.2500 kg/ha): 7.0
Preemergence herbicidal rating SETVI ([12]; rate 0.0156 kg/ha): 1.0
Preemergence herbicidal rating SETVI ([12]; rate 0.0313 kg/ha): 0.0
Preemergence herbicidal rating SETVI ([12]; rate 0.0625 kg/ha): 0.0
Preemergence herbicidal rating SETVI ([12]; rate 0.1250 kg/ha): 0.0
Preemergence herbicidal rating SETVI ([12]; rate 0.2500 kg/ha): 4.0
Preemergence herbicidal rating ORYSAT ([13]; rate 0.0156 kg/ha): 0.0
Preemergence herbicidal rating ORYSAT ([13]; rate 0.0313 kg/ha): 0.0
Preemergence herbicidal rating ORYSAT ([13]; rate 0.0625 kg/ha): 0.0
Preemergence herbicidal rating ORYSAT ([13]; rate 0.1250 kg/ha): 1.0
Preemergence herbicidal rating ORYSAT ([13]; rate 0.2500 kg/ha): 3.0
Preemergence herbicidal rating ZEAMX ([14]; rate 0.0156 kg/ha): 0.0
Preemergence herbicidal rating ZEAMX ([14]; rate 0.0313 kg/ha): 0.0
Preemergence herbicidal rating ZEAMX ([14]; rate 0.0625 kg/ha): 0.0
Preemergence herbicidal rating ZEAMX ([14]; rate 0.1250 kg/ha): 1.0
Preemergence herbicidal rating ZEAMX ([14]; rate 0.2500 kg/ha): 2.0
ECHORC herbicidal effect rating ([15]; 0.0313 kg/ha): 4.0
ECHORC herbicidal effect rating ([15]; 0.0625 kg/ha): 4.0
ECHORC herbicidal effect rating ([15]; 0.1250 kg/ha): 5.0
ECHORC herbicidal effect rating ([15]; 0.2500 kg/ha): 5.0
CYPSE herbicidal effect rating ([16]; 0.0313 kg/ha): 0.0
CYPSE herbicidal effect rating ([16]; 0.0625 kg/ha): 0.0
CYPSE herbicidal effect rating ([16]; 0.2500 kg/ha): 6.0
MOOVA herbicidal effect rating ([17]; 0.0313 kg/ha): 7.0
MOOVA herbicidal effect rating ([17]; 0.0625 kg/ha): 9.0
MOOVA herbicidal effect rating ([17]; 0.1250 kg/ha): 9.0
MOOVA herbicidal effect rating ([17]; 0.2500 kg/ha): 9.0

COC(=O)C(C)OC(=O)CN1C(=O)CSC1=Nc1cc(-n2c(=O)cc(C(F)(F)F)n(C)c2=O)c(F)cc1Cl (stereo not drawn) [Compound 116, 2-{{2-Chloro-5-[3,6-dihydro-3-methyl-2,6-dioxo-4-(trifluoromethyl)-1(2H)-pyrimidinyl]-4-fluorophenyl}imino}-4-oxo-3-thiazolidineacetic acid, ester with methyl lactate]
Herbicidal rating AMBEL ([1]; rate 0.0158 kg/ha): 9.0
Herbicidal rating AMBEL ([1]; rate 0.0315 kg/ha): 9.0
Herbicidal rating AMBEL ([1]; rate 0.0630 kg/ha): 7.0
Herbicidal rating CHEAL ([2]; rate 0.0158 kg/ha): 4.0
Herbicidal rating CHEAL ([2]; rate 0.0315 kg/ha): 5.0
Herbicidal rating CHEAL ([2]; rate 0.0630 kg/ha): 9.0
Herbicidal rating IPOHE ([3]; rate 0.0158 kg/ha): 9.0
Herbicidal rating IPOHE ([3]; rate 0.0315 kg/ha): 9.0
Herbicidal rating IPOHE ([3]; rate 0.0630 kg/ha): 9.0
Herbicidal rating ECHCG ([4]; rate 0.0158 kg/ha): 3.0
Herbicidal rating ECHCG ([4]; rate 0.0315 kg/ha): 1.0
Herbicidal rating ECHCG ([4]; rate 0.0630 kg/ha): 2.0
Herbicidal rating GLXMAW ([5]; rate 0.0158 kg/ha): 5.5
Herbicidal rating GLXMAW ([5]; rate 0.0315 kg/ha): 5.5
Herbicidal rating GLXMAW ([5]; rate 0.0630 kg/ha): 5.5
Herbicidal rating ORYSAT ([6]; rate 0.0158 kg/ha): 1.5
Herbicidal rating ORYSAT ([6]; rate 0.0315 kg/ha): 2.0
Herbicidal rating ORYSAT ([6]; rate 0.0630 kg/ha): 2.0
Herbicidal rating TRZAWR ([7]; rate 0.0158 kg/ha): 1.5
Herbicidal rating TRZAWR ([7]; rate 0.0315 kg/ha): 2.5
Herbicidal rating TRZAWR ([7]; rate 0.0630 kg/ha): 2.5
Herbicidal rating ZEAMX ([8]; rate 0.0158 kg/ha): 4.5
Herbicidal rating ZEAMX ([8]; rate 0.0315 kg/ha): 4.5
Herbicidal rating ZEAMX ([8]; rate 0.0630 kg/ha): 4.5
Preemergence herbicidal rating CASOB ([9]; rate 0.0156 kg/ha): 0.0
Preemergence herbicidal rating CASOB ([9]; rate 0.0313 kg/ha): 0.0
Preemergence herbicidal rating CASOB ([9]; rate 0.0625 kg/ha): 0.0
Preemergence herbicidal rating CASOB ([9]; rate 0.1250 kg/ha): 0.0
Preemergence herbicidal rating CASOB ([9]; rate 0.2500 kg/ha): 2.0
Preemergence herbicidal rating CHEAL ([10]; rate 0.0156 kg/ha): 9.0
Preemergence herbicidal rating CHEAL ([10]; rate 0.0313 kg/ha): 9.0
Preemergence herbicidal rating CHEAL ([10]; rate 0.0625 kg/ha): 4.0
Preemergence herbicidal rating CHEAL ([10]; rate 0.1250 kg/ha): 7.0
Preemergence herbicidal rating CHEAL ([10]; rate 0.2500 kg/ha): 9.0
Preemergence herbicidal rating IPOHE ([11]; rate 0.0156 kg/ha): 0.0
Preemergence herbicidal rating IPOHE ([11]; rate 0.0313 kg/ha): 0.0
Preemergence herbicidal rating IPOHE ([11]; rate 0.0625 kg/ha): 0.0
Preemergence herbicidal rating IPOHE ([11]; rate 0.1250 kg/ha): 1.0
Preemergence herbicidal rating IPOHE ([11]; rate 0.2500 kg/ha): 3.0
Preemergence herbicidal rating SETVI ([12]; rate 0.0156 kg/ha): 0.0
Preemergence herbicidal rating SETVI ([12]; rate 0.0313 kg/ha): 0.0
Preemergence herbicidal rating SETVI ([12]; rate 0.0625 kg/ha): 0.0
Preemergence herbicidal rating SETVI ([12]; rate 0.1250 kg/ha): 0.0
Preemergence herbicidal rating SETVI ([12]; rate 0.2500 kg/ha): 3.0
Preemergence herbicidal rating ORYSAT ([13]; rate 0.0156 kg/ha): 0.0
Preemergence herbicidal rating ORYSAT ([13]; rate 0.0313 kg/ha): 0.0
Preemergence herbicidal rating ORYSAT ([13]; rate 0.0625 kg/ha): 0.0
Preemergence herbicidal rating ORYSAT ([13]; rate 0.1250 kg/ha): 0.0
Preemergence herbicidal rating ORYSAT ([13]; rate 0.2500 kg/ha): 1.0
Preemergence herbicidal rating ZEAMX ([14]; rate 0.0156 kg/ha): 0.0
Preemergence herbicidal rating ZEAMX ([14]; rate 0.0313 kg/ha): 0.0
Preemergence herbicidal rating ZEAMX ([14]; rate 0.0625 kg/ha): 0.0
Preemergence herbicidal rating ZEAMX ([14]; rate 0.1250 kg/ha): 0.0
Preemergence herbicidal rating ZEAMX ([14]; rate 0.2500 kg/ha): 0.0
herbicidal effect rating, ECHORC ([15]; 0.0313 kg/ha): 0.0
herbicidal effect rating, ECHORC ([15]; 0.0625 kg/ha): 5.0
ECHORC herbicidal effect rating ([15]; 0.1250 kg/ha): 6.0
ECHORC herbicidal effect rating ([15]; 0.2500 kg/ha): 5.0
herbicidal effect rating, CYPSE ([16]; 0.0313 kg/ha): 6.0
herbicidal effect rating, CYPSE ([16]; 0.0625 kg/ha): 6.0
CYPSE herbicidal effect rating ([16]; 0.1250 kg/ha): 7.0
CYPSE herbicidal effect rating ([16]; 0.2500 kg/ha): 8.0
herbicidal effect rating, MOOVA ([17]; 0.0313 kg/ha): 7.0
herbicidal effect rating, MOOVA ([17]; 0.0625 kg/ha): 9.0
MOOVA herbicidal effect rating ([17]; 0.1250 kg/ha): 9.0
MOOVA herbicidal effect rating ([17]; 0.2500 kg/ha): 9.0

Source: US20020137929A1, “1 - (3-heterocyclylphenyl) isothiourea, -isourea, -guanidine and -amidine herbicidal agents” (Intellectual Property Department, BASF Aktiengesellschaft, priority 1998, published 2002)
